Measurements: patent US7262269B2, “Method for screening combinational bead library; ligands for cancer cells” (The Regents of University of California, priority 2001, dated 2007)

What was measured:
[1] = tested on: ovarian cancer cell line CaOV3; test: cell-growth-on-bead assay, CaOV3; format: cell-based, human
Protocol: (§1) The ratio of cells to beads is preferably about 10:1, but can range from about 1:1 to 100:1. The suspension of cells 10 and beads 12 is mixed gently for sufficient time to assure contact of beads 12 with suspended cells 10. The culture plates are incubated in a tissue culture incubator at about 4° C. to about 37° C., preferably 37° C., for a period of about 24 to about 72 hours. The suspension of cells 10 and beads 12 may be kept still or mixed, either continuously or intermittently, during the incubation period.
(§2) After the incubation period, beads 12 are observed under a dissecting microscope. […] These beads 14 (referred to as “positive” beads) are removed from the culture plates. A tetrazolium dye that stains live, but not dead, cells can be used to facilitate the identification and removal of the positive beads. If a dye is used, all of the beads are removed after the incubation period and resuspended in fresh medium in new culture plates. The dye is added. The plates are then incubated in a tissue culture incubator at 25° C. to 37° C. for about one to four hours. Live cells 10 convert the dye to a colored metabolite, which results in beads 14 with attached cells appearing colored, allowing them to be easily distinguished from beads 16 without attached cells, which appear colorless, as shown in FIG. 1E. Other dyes that stain live cells can also be used. After positive beads 14 are removed from the plates, attached cells 10 are separated from the beads. This can be done with the addition of a chaotrophic agent, such as 8 M guanidine hydrochloride, or a protease, such as trypsin.
(§3) About 150,000 peptide beads were mixed with approximately one million suspended cells in 15 ml of culture medium and distributed into six 3-cm culture plates. The culture plates were agitated gently at about 100 rpm for about 10 minutes. The culture plates were then incubated in a tissue culture incubator at 37° C. for about 24 hours to about 72 hours.
(§4) A dissecting microscope was used to examine the beads at about 24, 48, and 72 hours. After about 24 to 72 hours, beads with a monolayer of cells were observed.
(§5) At the end of the incubation period, all of the beads were removed and resuspended in fresh medium in a new culture plate. An MTT ([3-(4,5-dimethylthiazol-2-yl)-2,5-diphenyl] tetrazolium bromide) (Sigma, St. Louis, Mo.) dye solution was added to each culture plate to a final concentration of 0.5 mg/ml. The plates were incubated in a tissue culture incubator at 37° C. for about two hours to allow the purple color to develop. Each purple-colored peptide bead was isolated and removed. The attached cells were separated from the beads with 8 M guanidine hydrochloride.
(§6) The amino acid sequence of each isolated peptide bead was determined using an automated Procise 494 protein sequencer (Applied Biosystems, Foster City, Calif.). Several consensus peptide sequences were determined, one of which was cNGRGEQc. This peptide was resynthesized on beads, which were then rescreened with the A549 cells using the assay of the invention.
The method as described in Example 1 was performed, except that the combinatorial peptide library was screened with a different type of epithelial cancer cells, the ovarian cancer cell line CaOV3 (American Type Culture Collection).
(§7) As described in Example 1, after culturing for about 24 to 72 hours, beads with a monolayer of cells were observed. These positive beads were isolated and the amino acid sequence of each positive bead was determined, as described in Example 1.
The method as described in Example 1 was performed, except that a different combinatorial library was used and different types of epithelial cancer cells were used. The peptide library of Example 3 was used, except that the concentration of peptides on the surface of each bead was 20% of that used in Example 3, resulting in an increase in screening stringency. […]

epithelial cells = test: secondary library screening and structure/activity relationship studies; format: cell-based
Text: Through additional secondary library screening and structure/activity relationship studies, other ligands for epithelial cells have been identified, including the following: • c-D-G-Chg-G-A-N-c; c-N-G-Bpa-G-Q-M-c; c-N-G-Acdt-G-D-Bpa-c; cNGTGDGc; • cNGQGAGc; cNGYGSFc; c-N-G-Nle-G-Y-G-c; cNGMGAYc; cNGQGEQc; • cRGNGTDc; cNGQGPLc; cNGLGRSc; cDGMGSNc; cNGLGQYc; and • cNGYGTTc.

[2] = tested on: non-epithelial glioblastoma brain cancer cell line A-172; test: cell-growth-on-bead assay, A-172; format: cell-based, human; conditions: Example 5, library of Example 3, 24 to 72 hours
Protocol: as §1, §2, §3, §4, §5, §6
The method as described in Example 1 was performed, except that a different combinatorial library was used and non-epithelial cancer cells were used. A one-bead-one-compound combinatorial peptide library was prepared as described in Example 3.
The peptide library was screened with the non-epithelial glioblastoma brain cancer cell line A-172 (American Type Culture Collection).
as §7

[3] = tested on: epithelial ovarian cancer cell line OVCAR-3; test: cell-growth-on-bead assay, OVCAR-3; format: cell-based, human; conditions: Example 4, cX2GX4GX6X7c library, peptide concentration on bead surface 20% of Example 3
Protocol: as §1, §2, §3, §4, §5, §6
The method as described in Example 1 was performed, except that a different combinatorial library was used and different types of epithelial cancer cells were used. The peptide library of Example 3 was used, except that the concentration of peptides on the surface of each bead was 20% of that used in Example 3, resulting in an increase in screening stringency.
The peptide library was screened with one of the following epithelial ovarian cancer cell lines: CaOV3, SKOV-3, ES-2 and OVCAR-3 (American Type Culture Collection).
as §7

[4] = tested on: epithelial ovarian cancer cell line SKOV-3; test: cell-growth-on-bead assay, SKOV-3; format: cell-based, human
Protocol: as §1, §2, §3, §4, §5, §6
(§8) The method as described in Example 1 was performed, except that a different combinatorial library was used and different types of epithelial cancer cells were used. A one-bead-one-compound combinatorial peptide library was prepared according to the method described in Example 1, with the following formula: cX2GX4GX6X7c, where “c” is D-cysteine; “G” is glycine; X2 is D,d,N, n, S,Q,q,T, HoSer, Cit, E, e, HoCit, Hyp, Aad, Lys(Ac), A, 4-Pal, D-3-Pal, Pra, D-Pra, Y, Aib, M, Phe(4-CN), Tyr(3-NO2), Tyr(Me), Phe(4-NO2), Bug, Ach, Tyr(3,5-I), Aic, Phe(3-Cl), Chg, Bta, Bpa, Phe(3,4-Cl), Hyp(Bzl), or Cha; and X4, X6 and X7 are N, S, Q, T, HoSer, Cit, HoCit, Hyp, H, A, Pal, D-3-Pal, Pra, R, Y, Aib, Abu, P, M, V, Nva, Tyr(3-NO2), W, Phg, Phe(4-NO2), Bug, I, Ach, L, Nle, Phe(4-Me), Aic, Phe(3-Cl), HoPhe, Chg, Bta, Bpa, 2-Nal, 1-Nal, Phe(3,4-Cl), Hyp(Bzl), or Cha. […]

[5] = tested on: epithelial ovarian cancer cell line ES-2; test: cell-growth-on-bead assay, ES-2; format: cell-based, human
Protocol: as §1, §2, §3, §4, §5, §6, §8

[6] = Example 4, cX2GX4GX6X7c library, peptide concentration on bead surface 20% of Example 3
[7] = Example 3, cX2GX4GX6X7c library, 24 to 72 hours
[8] = Example 2, cXXXXXXc library, 24 to 72 hours

c-D-G-Cha-G-Hyp-N-c
identified as ligand (positive bead with monolayer of cells) [1, 6]: identified

c-D-G-Chg-G-A-N-c
identified as ligand for epithelial cells (epithelial cells): identified

c-D-G-L-G-P-HoPhe-c
identified as ligand (positive bead with monolayer of cells) [2]: identified

c-N-G-Acdt-G-D-Bpa-c
identified as ligand for epithelial cells (epithelial cells): identified

c-N-G-Bpa-G-Q-M-c
identified as ligand for epithelial cells (epithelial cells): identified

c-N-G-Nle-G-(4-Pal)-M-c
identified as ligand (positive bead with monolayer of cells) [2]: identified

c-N-G-Nle-G-Y-G-c
identified as ligand for epithelial cells (epithelial cells): identified

c-Nle-G-Nle-G-Tyr(3-NO2)-L-c
identified as ligand (positive bead with monolayer of cells) [3]: identified

c-Tyr(3-NO2)-G-F-G-(Pal-3D)-HoSer-c
identified as ligand (positive bead with monolayer of cells) [3]: identified

c-d-G-(4-Pal)-G-Phe (4-Me)-T-c
identified as ligand (positive bead with monolayer of cells) [2]: identified

c-d-G-(4-Pal)-G-Tyr(3-NO2)-Cha-c
identified as ligand (positive bead with monolayer of cells) [4, 7]: identified

c-d-G-A-G-Bta-L-c
identified as ligand (positive bead with monolayer of cells) [4, 6]: identified

c-d-G-Aib-G-Aib-N-c
identified as ligand (positive bead with monolayer of cells) [5, 6]: identified

c-d-G-Aib-G-P-S-c
identified as ligand (positive bead with monolayer of cells) [5, 6]: identified

c-d-G-Bta-G-Hyp-Y-c
identified as ligand (positive bead with monolayer of cells) [5, 6]: identified

c-d-G-Cha-G-1-T-c
identified as ligand (positive bead with monolayer of cells) [4, 7]: identified

c-d-G-Cha-G-Bta-Q-c
identified as ligand (positive bead with monolayer of cells) [5, 6]: identified

c-d-G-Cha-G-HoCit-Q-c
identified as ligand (positive bead with monolayer of cells) [5, 6]: identified

c-d-G-Cha-G-HoCit-S-c
identified as ligand (positive bead with monolayer of cells) [5, 7]: identified

c-d-G-Chg-G-Hyp-N-c
identified as ligand (positive bead with monolayer of cells) [1, 6]: identified

c-d-G-Cit-G-Hyp(Bzl)-M-c
identified as ligand (positive bead with monolayer of cells) [4, 7]: identified

c-d-G-HoCit-G-P-Q-c
identified as ligand (positive bead with monolayer of cells) [5, 6]: identified

c-d-G-HoCit-G-T-Nva-c
identified as ligand (positive bead with monolayer of cells) [3]: identified

c-d-G-L-G-HoSer-T-c
identified as ligand (positive bead with monolayer of cells) [5, 7]: identified

c-d-G-L-G-S-Bpa-c
identified as ligand (positive bead with monolayer of cells) [4, 6]: identified

c-d-G-M-G-HoSer-Nle-c
identified as ligand (positive bead with monolayer of cells) [1, 6]: identified

c-d-G-M-G-S-Cha-c
identified as ligand (positive bead with monolayer of cells) [1, 6]: identified

c-d-G-Nle-G-1-G-c
identified as ligand (positive bead with monolayer of cells) [3]: identified

c-d-G-Nle-G-Phe(3-Cl)-S-c
identified as ligand (positive bead with monolayer of cells) [4, 6]: identified

c-d-G-Nva-G-Phe (4-CN)-F-c
identified as ligand (positive bead with monolayer of cells) [4, 7]: identified

c-d-G-Phe(3-C l)-G-T-Y-c
identified as ligand (positive bead with monolayer of cells) [3]: identified

c-d-G-Phe(3-Cl)-G-Q-F-c
identified as ligand (positive bead with monolayer of cells) [5, 7]: identified

c-d-G-Phe(4-Me)-G-Aib-S-c
identified as ligand (positive bead with monolayer of cells) [5, 6]: identified

c-d-G-Phe(4-Me)-G-T-Pra-c
identified as ligand (positive bead with monolayer of cells) [4, 7]: identified

c-d-G-Phe(4Me)-G-P-Cha-c
identified as ligand (positive bead with monolayer of cells) [5, 7]: identified

c-d-G-Phg-G-P-F-c
identified as ligand (positive bead with monolayer of cells) [4, 7]: identified

c-d-G-Tyr(3-NO2)-G-Aic-Q-c
identified as ligand (positive bead with monolayer of cells) [3]: identified

c-d-G-Tyr(3-NO2)-G-F-L-c
identified as ligand (positive bead with monolayer of cells) [1, 6]: identified

c-d-G-Tyr(3-NO2)-G-Nle-H-c
identified as ligand (positive bead with monolayer of cells) [4, 6]: identified

c-d-G-Tyr(3-NO2)-G-Phg-M-c
identified as ligand (positive bead with monolayer of cells) [4, 6]: identified

c-d-G-Tyr(3-NO2)-G-i-Pra-c
identified as ligand (positive bead with monolayer of cells) [1, 6]: identified

c-d-G-Tyr(3NO2)-G-Pra-G-c
identified as ligand (positive bead with monolayer of cells) [4, 7]: identified

c-d-G-Tyr(Me)-G-T-M-c
identified as ligand (positive bead with monolayer of cells) [5, 7]: identified

c-d-G-V-G-Hyp-HoSer-c
identified as ligand (positive bead with monolayer of cells) [5, 7]: identified

c-e-G-L-G-Nle-M-c
identified as ligand (positive bead with monolayer of cells) [2]: identified

c-e-G-N-G-S-(1-Nal)-c
identified as ligand (positive bead with monolayer of cells) [2]: identified

c-e-G-y-G-Hyp-W-c
identified as ligand (positive bead with monolayer of cells) [2]: identified

cDGLGDDc
identified as ligand (positive bead with monolayer of cells) [2]: identified
identified as ligand (positive bead with monolayer of cells) [1, 8]: identified

cDGMGSNc
identified as ligand for epithelial cells (epithelial cells): identified

cDGWGPNc
identified as ligand (positive bead with monolayer of cells) [2]: identified
identified as ligand (positive bead with monolayer of cells) [1, 8]: identified

cNGLGQYc
identified as ligand for epithelial cells (epithelial cells): identified

cNGLGRSc
identified as ligand for epithelial cells (epithelial cells): identified

cNGMGAYc
identified as ligand for epithelial cells (epithelial cells): identified

cNGQGAGc
identified as ligand for epithelial cells (epithelial cells): identified

cNGQGEQc
identified as ligand for epithelial cells (epithelial cells): identified

cNGQGPLc
identified as ligand for epithelial cells (epithelial cells): identified

cNGTGDGc
identified as ligand for epithelial cells (epithelial cells): identified

cNGYGSFc
identified as ligand for epithelial cells (epithelial cells): identified

cNGYGTTc
identified as ligand for epithelial cells (epithelial cells): identified

cRGNGTDc
identified as ligand for epithelial cells (epithelial cells): identified

cdGIGPQc
identified as ligand (positive bead with monolayer of cells) [4, 7]: identified

cdGLGFTc
identified as ligand (positive bead with monolayer of cells) [4, 7]: identified

cdGLGWGc
identified as ligand (positive bead with monolayer of cells) [5, 6]: identified

cdGLGYYc
identified as ligand (positive bead with monolayer of cells) [5, 7]: identified

cdGMGSAc
identified as ligand (positive bead with monolayer of cells) [1, 6]: identified
